# US12209087B2, “AKT1 modulators” (Alterome Therapeutics, Inc., priority 2022, dated 2025)
# Biological target: T1, full length AKT E17K (Homo sapiens, UniProt P31749, E17K)
# T1 construct: host or cells: HEK-293 (ATCC CRL-1573)
# Assay: NanoBRET Target Engagement (TE) Assay
# Type: cell-based
# Conditions: competitive displacement of tracer in cells, read-out: AKT1 E17K IC50
# How it was run: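 Compound and tracer incubated 2 h before luminescence at donor 450 nm and acceptor 600 nm, with extracellular signal inhibited. EC50 by sigmoidal variable-slope regression.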
# T1 sequence (P31749 whole entry E17K): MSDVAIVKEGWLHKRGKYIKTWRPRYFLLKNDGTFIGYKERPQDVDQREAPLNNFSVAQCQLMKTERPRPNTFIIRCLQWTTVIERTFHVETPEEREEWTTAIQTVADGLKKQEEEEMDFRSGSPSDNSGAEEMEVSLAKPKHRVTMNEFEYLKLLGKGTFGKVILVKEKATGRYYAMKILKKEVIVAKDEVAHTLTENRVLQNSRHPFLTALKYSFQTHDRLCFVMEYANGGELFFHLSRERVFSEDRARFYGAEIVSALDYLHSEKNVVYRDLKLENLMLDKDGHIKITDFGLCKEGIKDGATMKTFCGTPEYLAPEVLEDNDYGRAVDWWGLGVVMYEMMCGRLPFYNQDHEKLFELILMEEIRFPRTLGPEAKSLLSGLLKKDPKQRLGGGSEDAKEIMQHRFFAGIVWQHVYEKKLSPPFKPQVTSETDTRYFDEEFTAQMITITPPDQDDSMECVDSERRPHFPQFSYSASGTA
row,IC50 [nM],SMILES
1,< 15,"N#Cc1nccc(NC2CCN(Cc3ccc(-n4c(-c5cccnc5N)nc5ccc(-n6cncn6)nc54)cc3)CC2)n1 [Example 590, 4-((1-(4-(2-(2-Aminopyridin-3-yl)-5-(1H-1,2,4-triazol-1-yl)-3H-imidazo[4,5-b]pyridin-3-yl)benzyl)piperidin-4-yl)amino)pyrimidine-2-carbonitrile]"
2,60 to 600,"N#Cc1nccc(NC2CCN(Cc3ccc(-n4c(-c5cccnc5N)nc5ccccc54)cc3)CC2)n1 [Example 532, 4-((1-(4-(2-(2-Aminopyridin-3-yl)-1H-benzo[d]imidazol-1-yl)benzyl)piperidin-4-yl)amino)pyrimidine-2-carbonitrile]"
3,< 15,"CC(C)c1ccc(-c2ccc3nc(-c4cccnc4N)n(-c4ccc(CN5CCC(Nc6ccnc(C#N)n6)CC5)cc4)c3n2)cn1 [Example 643, 4-((1-(4-(2-(2-Aminopyridin-3-yl)-5-(6-isopropylpyridin-3-yl)-3H-imidazo[4,5-b]pyridin-3-yl)benzyl)piperidin-4-yl)amino)pyrimidine-2-carbonitrile]"
4,< 15,"Cc1ncoc1-c1ccc2nc(-c3cccnc3N)n(-c3ccc(CN4CCC(Nc5ccnc(C#N)n5)CC4)cc3)c2n1 [Example 554, 4-((1-(4-(2-(2-Aminopyridin-3-yl)-5-(4-methyloxazol-5-yl)-3H-imidazo[4,5-b]pyridin-3-yl)benzyl)piperidin-4-yl)amino)pyrimidine-2-carbonitrile]"
5,60 to 600,"Cn1cnnc1-c1ccc2nc(-c3cccnc3N)n(-c3ccc(CN4CCC(Nc5ccnc(C#N)n5)CC4)cc3)c2n1 [Example 569, 4-((1-(4-(2-(2-Aminopyridin-3-yl)-5-(4-methyl-4H-1,2,4-triazol-3-yl)-3H-imidazo[4,5-b]pyridin-3-yl)benzyl)piperidin-4-yl)amino)pyrimidine-2-carbonitrile]"
6,15 to 60,"N#Cc1nccc(NC2CCN(Cc3ccc(-n4c(-c5cccnc5N)nc5ccc(N)nc54)cc3)CC2)n1 [Example 497, 4-((1-(4-(5-Amino-2-(2-aminopyridin-3-yl)-3H-imidazo[4,5-b]pyridin-3-yl)benzyl)piperidin-4-yl)amino)pyrimidine-2-carbonitrile]"
7,< 15,"N#Cc1nccc(NC2CCN(Cc3ccc(-n4c(-c5cccnc5N)nc5ccc(-c6cnccc6F)nc54)cc3)CC2)n1 [Example 595, 4-((1-(4-(2-(2-Aminopyridin-3-yl)-5-(4-fluoropyridin-3-yl)-3H-imidazo[4,5-b]pyridin-3-yl)benzyl)piperidin-4-yl)amino)pyrimidine-2-carbonitrile]"
8,< 15,"CCc1ccc(-c2ccc3nc(-c4cccnc4N)n(-c4ccc(CN5CCC(Nc6ccnc(C#N)n6)CC5)cc4)c3n2)nc1 [Example 647, 4-((1-(4-(2-(2-Aminopyridin-3-yl)-5-(5-ethylpyridin-2-yl)-3H-imidazo[4,5-b]pyridin-3-yl)benzyl)piperidin-4-yl)amino)pyrimidine-2-carbonitrile]"
9,< 15,"[2H]C([2H])([2H])Nc1ccc2nc(-c3cccnc3N)n(-c3ccc(CN4CCC(Nc5ccnc(C#N)n5)CC4)cc3)c2n1 [Example 459, 4-((1-(4-(2-(2-Aminopyridin-3-yl)-5-((methyl-d3)amino)-3H-imidazo[4,5-b]pyridin-3-yl)benzyl)piperidin-4-yl)amino)pyrimidine-2-carbonitrile]"
10,< 15,"N#Cc1ncnc(N2CCN(Cc3ccc(-n4c(-c5cccnc5N)nc5ccc(-c6ccc(F)cc6)nc54)cc3)CC2)n1 [Example 368, 4-(4-(4-(2-(2-Aminopyridin-3-yl)-5-(4-fluorophenyl)-3H-imidazo[4,5-b]pyridin-3-yl)benzyl)piperazin-1-yl)-1,3,5-triazine-2-carbonitrile]"
11,< 15,"N#Cc1nccc(N2C[C@H]3CN(Cc4ccc(-n5c(-c6cccnc6N)nc6ccc(-c7ccccc7)nc65)cc4)C[C@@H]3C2)n1 [Example 341, 4-((3aR,6aR)-5-(4-(2-(2-aminopyridin-3-yl)-5-phenyl-3H-imidazo[4,5-b]pyridin-3-yl)benzyl)hexahydropyrrolo[3,4-c]pyrrol-2(1H)-yl)pyrimidine-2-carbonitrile]"
12,< 15,"CCOc1ccc(-c2ccc3nc(-c4cccnc4N)n(-c4ccc(CN5CCC(Nc6ccnc(C#N)n6)CC5)cc4)c3n2)cn1 [Example 584, 4-((1-(4-(2-(2-Aminopyridin-3-yl)-5-(6-ethoxypyridin-3-yl)-3H-imidazo[4,5-b]pyridin-3-yl)benzyl)piperidin-4-yl)amino)pyrimidine-2-carbonitrile]"
13,15 to 60,"N#Cc1cccc(-c2ccc3nc(-c4cccnc4N)n(-c4ccc(CN5CCC(Nc6ccnc(C#N)n6)CC5)cc4)c3n2)n1 [Example 428, 4-((1-(4-(2-(2-Aminopyridin-3-yl)-5-(6-cyanopyridin-2-yl)-3H-imidazo[4,5-b]pyridin-3-yl)benzyl)piperidin-4-yl)amino)pyrimidine-2-carbonitrile]"
14,< 15,"N#Cc1nccc(NC2CCN(Cc3ccc(-n4c(-c5nccnc5N)nc5ccc(-c6ccc(OCF)nc6)nc54)cc3)CC2)n1 [Example 639, 4-((1-(4-(2-(3-Aminopyrazin-2-yl)-5-(6-(fluoromethoxy)pyridin-3-yl)-3H-imidazo[4,5-b]pyridin-3-yl)benzyl)piperidin-4-yl)amino)pyrimidine-2-carbonitrile]"
15,< 15,"N#Cc1nccc(NN2CCN(Cc3ccc(-n4c(-c5cccnc5N)nc5ccc(-c6ccccc6)nc54)cc3)CC2)n1 [Example 426, 4-((4-(4-(2-(2-Aminopyridin-3-yl)-5-phenyl-3H-imidazo[4,5-b]pyridin-3-yl)benzyl)piperazin-1-yl)amino)pyrimidine-2-carbonitrile]"
16,60 to 600,"Cn1ccc(-c2ccc3nc(-c4cccnc4N)n(-c4ccc(CN5CCC(Nc6nccc(C#N)n6)CC5)cc4)c3n2)cc1=O [Example 360, 2-((1-(4-(2-(2-Aminopyridin-3-yl)-5-(1-methyl-2-oxo-1,2-dihydropyridin-4-yl)-3H-imidazo[4,5-b]pyridin-3-yl)benzyl)piperidin-4-yl)amino)pyrimidine-4-carbonitrile]"
17,15 to 60,"N#Cc1nccc(NC2CCN(Cc3ccc(-n4c(-c5cncnc5N)nc5ccc(-c6ccc(F)cn6)nc54)cc3)CC2)n1 [Example 573, 4-((1-(4-(2-(4-Aminopyrimidin-5-yl)-5-(5-fluoropyridin-2-yl)-3H-imidazo[4,5-b]pyridin-3-yl)benzyl)piperidin-4-yl)amino)pyrimidine-2-carbonitrile]"
18,< 15,"N#Cc1nccc(NC2CCN(Cc3ccc(-n4c(-c5cccnc5N)nc5ccc([C@H]6CCOC6)nc54)cc3)CC2)n1 (single isomer, unassigned) [Example 507]"

# Same assay, conditions: competitive tracer displacement in living cells, read-out: AKT1 E17K IC50
row,IC50 [nM],SMILES
1,60 to 600,"N#Cc1ccc(C(=O)NC2CCN(Cc3ccc(-n4c(-c5cccnc5N)nc5ccc(-c6ccccc6)nc54)cc3)CC2)cn1 [Example 167, N-(1-(4-(2-(2-Aminopyridin-3-yl)-5-phenyl-3H-imidazo[4,5-b]pyridin-3-yl)benzyl)piperidin-4-yl)-6-cyanonicotinamide]"
2,600 to 10000,"N#Cc1ccncc1C(=O)NCc1ccc(-n2c(-c3cccnc3N)nc3cccnc32)cc1 [Example 100, N-(4-(2-(2-Aminopyridin-3-yl)-3H-imidazo[4,5-b]pyridin-3-yl)benzyl)-4-cyanonicotinamide]"
3,15 to 60,"N#Cc1ncnc(N2CCC3(CCN(Cc4ccc(-n5c(-c6cccnc6N)nc6ccc(-c7ccccc7)nc65)cc4)C3)CC2)n1 [Example 252, 4-(2-(4-(2-(2-Aminopyridin-3-yl)-5-phenyl-3H-imidazo[4,5-b]pyridin-3-yl)benzyl)-2,8-diazaspiro[4.5]decan-8-yl)-1,3,5-triazine-2-carbonitrile]"
4,< 15,"N#Cc1nccc(C(=O)N2CCN(Cc3ccc(-n4c(-c5cccnc5N)nc5ccc(-c6ccccc6)nc54)cc3)CC2)n1 [Example 141, 4-(4-(4-(2-(2-Aminopyridin-3-yl)-5-phenyl-3H-imidazo[4,5-b]pyridin-3-yl)benzyl)piperazine-1-carbonyl)pyrimidine-2-carbonitrile]"
5,15 to 60,"N#Cc1ncnc(N2CC3(CCN(Cc4ccc(-n5c(-c6cccnc6N)nc6ccc(-c7ccccc7)nc65)cc4)CC3)C2)n1 [Example 249, 4-(7-(4-(2-(2-aminopyridin-3-yl)-5-phenyl-3H-imidazo[4,5-b]pyridin-3-yl)benzyl)-2,7-diazaspiro[3.5]nonan-2-yl)-1,3,5-triazine-2-carbonitrile]"
6,15 to 60,"N#Cc1ccc(C(=O)N2CCN(Cc3ccc(-n4c(-c5cccnc5N)nc5ccc(-c6ccccc6)nc54)cc3)CC2)cn1 [Example 166, 5-(4-(4-(2-(2-Aminopyridin-3-yl)-5-phenyl-3H-imidazo[4,5-b]pyridin-3-yl)benzyl)piperazine-1-carbonyl)picolinonitrile]"
7,< 15,"N#Cc1ncnc(NC2CC3(CCN(Cc4ccc(-n5c(-c6cccnc6N)nc6ccc(-c7ccccc7)nc65)cc4)CC3)C2)n1 [Example 248, 4-((7-(4-(2-(2-aminopyridin-3-yl)-5-phenyl-3H-imidazo[4,5-b]pyridin-3-yl)benzyl)-7-azaspiro[3.5]nonan-2-yl)amino)-1,3,5-triazine-2-carbonitrile]"
8,15 to 60,"N#Cc1cc(NC2CCN(Cc3ccc(-n4c(-c5cccnc5N)nc5ccc(N6CCOCC6)nc54)cc3)CC2)ncn1 [Example 241, 6-((1-(4-(2-(2-Aminopyridin-3-yl)-5-morpholino-3H-imidazo[4,5-b]pyridin-3-yl)benzyl)piperidin-4-yl)amino)pyrimidine-4-carbonitrile]"

row,SMILES,IC50 [nM]
1,"N#Cc1ccnc(N2C3CCC2CN(Cc2ccc(-n4c(-c5cccnc5N)nc5ccc(-c6ccccc6)nc54)cc2)C3)n1 [Example 204, 2-(3-(4-(2-(2-Aminopyridin-3-yl)-5-phenyl-3H-imidazo[4,5-b]pyridin-3-yl)benzyl)-3,8-diazabicyclo[3.2.1]octan-8-yl)pyrimidine-4-carbonitrile]",600 to 10000
